Measured values: paper PMC2720784 (Biochemistry, 2009)
Where a chain is given by its changes, count along the chain named.

Columns and labels:
R343V hNCRD = biological target: T1, R343V hNCRD (Homo sapiens, UniProt P35247, R363V); test: Mannan competition assay, R343V; type: binding; details: for change in affinity of R343V relative to wild-type: competition assays
T1 sequence (P35247 223-375 R363V limits assumed): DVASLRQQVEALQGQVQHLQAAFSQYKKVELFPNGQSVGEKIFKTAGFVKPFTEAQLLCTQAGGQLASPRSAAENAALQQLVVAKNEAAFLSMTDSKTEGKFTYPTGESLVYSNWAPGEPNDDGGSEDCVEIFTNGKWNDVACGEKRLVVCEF

R343A hNCRD = biological target: T2, R343A hNCRD (Homo sapiens, UniProt P35247, R363A); test: Mannan competition assay, R343A; details: read-out: I50 for inhibition of binding to mannan, one experiment
T2 sequence (P35247 223-375 R363A limits assumed): T1 sequence (P35247 223-375 R363V limits assumed) with V141A

Phil82 IAV [1] = type: cell-based, influenza A virus; details: n=5
Phil82 IAV [2] = type: cell-based, influenza A virus
Phil82 IAV [3] = type: binding, influenza A virus

For OC[C@H]1OC(O)[C@@H](O)[C@@H](O)[C@@H]1O (stereo partly drawn) [D-mannose], which “change in affinity of R343V relative to wild-type” value (R343V hNCRD) is on record?
The value was “no significant increase in affinity”.

With CO[C@H]1O[C@H](CO[C@H]2O[C@H](CO)[C@@H](O)[C@H](O)[C@@H]2O)[C@@H](O)[C@H](O[C@H]2O[C@H](CO)[C@@H](O)[C@H](O)[C@@H]2O)[C@@H]1O [TM core, methyl 3,6-Di-O-(α-D-mannopyranosyl)-α-D-mannopyranoside] as the molecule, how does the “change in affinity of R343V relative to wild-type” value (R343V hNCRD) read?
The value was “no significant increase in affinity”.

For OC[C@H]1O[C@H](O[C@@H]2C(O)O[C@H](CO)[C@@H](O)[C@@H]2O)[C@@H](O)[C@@H](O)[C@@H]1O (stereo partly drawn) [alpha1–2 DM, alpha1–2 linked dimannose], which “increase in affinity as compared to wild-type” value (R343V hNCRD; R343V vs wild-type hNCRD) is on record?
Its value is 7 fold.

What about the “change in affinity of R343V relative to wild-type” value (R343V hNCRD) of the same molecule?
The value was “greatly enhanced binding”.

And the IC50 (R343V hNCRD; read-out: I50 for inhibition of binding to mannan, R343V, n=5)?
Its IC50 is 210 ± 60 µM.

What about the IC50 (R343A hNCRD) of the same molecule?
Its IC50 is 362 µM.

Which “change in affinity of R343V relative to wild-type” value (R343V hNCRD) does the source give for OC[C@H]1O[C@H](O[C@H]2[C@H](O)[C@@H](CO)OC(O)[C@H]2O)[C@@H](O)[C@@H](O)[C@@H]1O (stereo partly drawn) [α1–3 dimannose] here?
The value was “no significant increase in affinity”.

OC[C@H]1O[C@H](OC[C@H]2OC(O)[C@@H](O)[C@@H](O)[C@@H]2O)[C@@H](O)[C@@H](O)[C@@H]1O (stereo partly drawn) [α1–6 dimannose] was tested. Which “change in affinity of R343V relative to wild-type” value (R343V hNCRD) did it give?
Its value is “no significant increase in affinity”.

With “hNCRD Wild type: N-terminally tagged trimeric neck+carbohydrate recognition domain fusion protein of human SP-D, wild type” as the molecule, how does the “HA Inhibitory Concentration” value (Phil82 IAV [1]) read?
The value was greater than 50 µg/mL.

And the “viral neutralizing activity” value (Phil82 IAV [2])?
Its value is “lacked”.

And the “binding to IAV, solid phase binding assay” value (Phil82 IAV [3])?
The value was “no measurable binding”.
